# Assay results reported in patent publication US20050118715A1, “Modulation of stem and progenitor cell differentiation, assays, and uses thereof” (priority 2002, published 2005).
# System: Sca+Lin- progenitors
# Test: Generation of murine dendritic cells from bone marrow Sca+ progenitors, cell surface phenotype (Example 13)
# Assay type: cell-based, C57BL/6 mice
# Conditions: 10 μM
# Text: Mouse bone marrow from inbred C57BL/6 mice are obtained from Clonetics. Hematopoietic Sca+Lin− progenitors are enriched using SpinSep murine progenitor enrichment cocktail (StemCell Technologies) and cultured in Iscove's MDM with BUI 95000 (StemCell Technologies) in the presence of murine growth factors SCF, Flt3L, GM-CSF and M-CSF for 9 days, to promote expansion of Sca+ cells and a DC precursor phenotype and then in the presence of GM-CSF and TNF-α for 3 additional days to drive the cells to an immature DC phenotype. Enriched Sca+Lin− cells are cultured in the presence of DMSO (0.1%), SelCIDs™ at 10 μM or all-trans retinoic acid (ATRA) (ICN Biomedicals) at 10 μM from day 0. Compounds are added to cells at day 0 and day 9.
# Analysis of Murine cell surface phenotype: murine cells are processed for double staining (14 min at RT) at day 9 and day 12; using FITC and PE conjugated mAbs. Antibodies used are from BD Pharmingen: Sca (PE), CD11b (FITC), Gr-1 ([…]), CD86 (PE), CD14 (PE), CD80 (PE), I-Ab (PE), CD40 (PE) and CD32.1/16.1 (FITC) from Miltenyi. Fluorescence analysis is performed on a FACScan flow cytometer ([…]) after acquisition of 10,000 events.
compound,measurement,setting,value
"CC1=C(/C=C/C(C)=C/C=C/C(C)=C/C(=O)O)C(C)(C)CCC1 [ATRA, all-trans retinoic acid]","CD80, I-A^b and Sca+ expression",by day 9,marked downregulation
same,expression of CD40 and CD80,by day 12,marked downregulation
